What was measured:
MT1-F = molecular target: T1, MT1-F (Homo sapiens, UniProt P50281); test: Co-immunoprecipitation with MT1-F using anti-FLAG M2 beads (COS1 cells); type: binding; details: co-expressed in COS1 cells (FIG. 18)
T1 construct: expressed in transfected cells
Method: Transfected COS1 cells were lysed in a RIPA buffer (50 mM Tris-HCl, pH 7.5; 150 mM NaCl; 1% Triton-X100; 1% sodium deoxycolate; 0.1% SDS; 1 mM EDTA; 1 mM PMSF; 10 μM E-64; 0.02% NaN3) at room temperature for 1 hr. Cell lysates were centrifuged at 15,000 rpm in Eppendorf tubes, and the supernatant was reacted with anti-FLAG M2 antibody-conjugated beads (Sigma) at 4° C. for 1 hr. The beads were washed three times with a RIPA buffer and once with Tris-buffered saline (pH 7.5) (TBS). Bound proteins were eluted by the FLAG peptide ([…] 200 μg/ml) (Sigma) in TBS, and subjected to Western blot analysis using a monoclonal mouse anti-FLAG epitope M2 antibody (Sigma), a monoclonal mouse anti-c-Myc antibody (Ab-1) (Oncogene, MA, USA; 1 μg/ml), a rabbit anti-(human MT1Cat) antibody (1:2000), or a monoclonal mouse anti-human MT1PEX antibody (222-1D8) (0.5 μg/ml).
The activation of proMMP-2 by MT1-MMP on the cell surface requires the ternary complex formation of proMMP-2, TIMP-2 and MT1-MMP, and also the presence of TIMP-2-free MT1-MMP near the ternary complex. If TIMP-2-free MT1-MMP and the ternary complex are far apart, the activation should not occur. We thus hypothesized that MT1-MMP would form a homophilic complex on the cell surface to arrange the effective activation complex for MMP-2. […]

MT1-MMP [1] = test: In situ gelatin degrading assay (DQ gelatin or Alexa488-conjugated gelatin); type: cell-based, human; details: DQ gelatin; CHO-K1 (FIG. 13) or COS1 cells (FIG. 22)
Method: Two different in situ gelatin degrading assays were performed. One used DQ™ gelatin (Molecular Probes, Inc., OR, USA). DQ gelatin is a fluorescence-quenched gelatin substrate, and will fluoresce upon proteolytic cleavage. Glass cover slips were coated with 5% DQ™ gelatin in a 10 mg/ml unlabeled gelatin solution, and dried. Transfected cells were cultured on the cover slip in a humidified chamber for 16 hrs. The cells were then fixed with 3% para-formaldehyde and the degraded areas were visualized as those showing fluorescence.
The other assay used Alexa488-conjugated gelatin made with an Alexa488-labeling kit (Molecular Probes). The bottom surfaces of 4-well chamber slides (Nunc) were coated with Alexa488-conjugated gelatin according to the method of Yana, I. and Weiss, S. J., Mol. Biol. Cell, 11, 2387-2401, 2000. Transfected COS1 cells were cultured in the chamber slides for 16 hrs in a humidified culture incubator. The cells were then fixed with 3% para-formaldehyde in PBS, and the degraded area was analyzed under a fluorescence microscope. The degraded area was visualized as a dark, non-fluorescent area. Fluorescence images were analyzed using confocal microscopy (BioRad).
(§1) Next, to determine if MT1PEX-F affects the catalytic activity of MT1-MMP on the cell surface or not, tests for gelatin degrading activity and binding capacity to TIMP-2 were conducted using cells transfected in the same incubator. As shown in FIGS. 12 through 14, CHO-K1 cells were transfected with an expression vector for MT1-F, MT1-F/MT1PEX-F or MT1Cat-F, or a vector alone (Mock). The cells were then treated with trypsin, and separately seeded to: DQ™ gelatin-coated cover slips for testing the proteolytic activity (FIG. 13); and 24-well plates for TIMP-2 binding assay (FIG. 12) and for the activation of proMMP-2 (FIG. 14). Transfected cells on the DQ™ gelatin-coated cover slip as shown in FIG. 13 were incubated in a medium at 37° C. for 18 hrs, and the generated fluorescence was analyzed using confocal microscopy. Transfected cells on the 24-well plate as shown in FIG. 12 were incubated with 25 nM ^125I-labeled TIMP-2 in the presence or absence of BB-94 (50 μM) at 0° C. for 1 hr. MT1-MMP specific binding was calculated by subtracting the datum obtained in the presence of BB-94 (50 μM) from each datum derived from the corresponding experiments. Identically transfected cells on the 24-well plate as shown in FIG. 14 were subjected to the reaction with purified proMMP-2 in a serum-free medium at 37° C. for 18 hrs. The cells and culture supernatants were respectively subjected to Western blotting analysis using a monoclonal anti-FLAG M2 antibody, and gelatin zymography analysis. […] DQ™ gelatin is a fluorescence-quenched gelatin, which fluoresces upon proteolytic cleavage. […]

MT1-MMP [2] = test: Activation of proMMP-2 by MT1-MMP on the cell surface of transfected cells (gelatin zymography); type: cell-based, human; details: transfected COS1 cells, exogenous purified proMMP-2 (FIGS. 2, 20)
Method: Gelatin zymography was conducted using an SDS-polyacrylamide gel (PAGE) containing gelatin (0.8 mg/ml) (Itoh, Y. et al., J. Biol. Chem., 273: 24360-24367, 1998). The samples were mixed with a SDS-PAGE loading buffer without a reducing agent and subjected to electrophoretic analysis at room temperature. Enzyme activity was visualized as a negative staining area with Coomassie Brilliant Blue R-250.
The expression construct for FLAG epitope ([…]-tagged MT1-MMP (MT1-F) described in Itoh, Y. et al., J. Biol. Chem., 274: 34260-34266, 1999 was used as a template to generate cDNA for MT1Cat-F (A Ile^318-Gly^535) by the PCR extension method of Ho et al., (Ho, S. N. et al., Gene, 77: 51-59, 1989). The cDNA was subcloned into pSG5 (Stratagene, CA, USA). The PCR-generated fragments were confirmed by DNA sequencing. COS1 cells were transfected with the expression vector for MT1-MMP mutant; MT1-F or MT1Cat-F, or a vector alone (Mock). Expression vectors for each protein were transfected using FuGENE6™ (Roche Molecular Biochemicals) according to the manufacturer's instructions. COS1 cells were seeded in 6-well plates at 1.5×10^5/well at 16 hrs before the transfection was performed. The COS1 cells were maintained in a HAM F-12 medium or DMEM containing 10% fetal bovine serum in a humidified incubator at 37° C. At 48 hrs after the transfection, the cells were collected for use in the experiments. The cells were incubated in the presence of purified proMMP-2 in a serum-free medium (0.25 μg/ml) at 37° C. for 18 hrs. Cell lysates were tested for the expression of the mutants, while culture supernatants were tested for the activation of proMMP-2.
To investigate roles of dimer formation upon the activation of proMMP-2, MT1-F was introduced into COS1 cells together with MT1PEX-F. The co-introduced cells were reacted with exogenously added proMMP-2. Thus, COS1 cells were co-transfected with the MT1-F and MT1PEX-F at indicated DNA amount ratios. Next, purified proMMP-2 (0.25 μg/ml) in a serum-free medium was reacted with the resulting cells at 37° C. for 18 hrs. MMP-2 in the culture supernatant was analyzed by gelatin zymography, and the cell lysates were subjected to Western blotting analysis using a monoclonal anti-FLAG M2 antibody.
as §1, with “experiments.” for “experiments. Identically transfected cells on the 24-well plate as shown in FIG. 14 were subjected to the reaction with purified proMMP-2 in a serum-free medium at 37° C. for 18 hrs. The cells and culture supernatants were respectively subjected to Western blotting analysis using a monoclonal anti-FLAG M2 antibody, and gelatin zymography analysis.”

Substance: MT1Cat: MT1-MMP lacking the PEX domain (untagged)
- co-immunoprecipitation with MT1-F (MT1-F): not MT1Cat was co-immunoprecipitated with MT1-F
- gelatin degrading (proteolytic) activity of cells expressing the mutant (MT1-MMP [1]): retains its proteolytic activity
- activation of proMMP-2 by cells expressing the mutant (MT1-MMP [2]): cannot activate proMMP-2

— US20040120954A1, “Regulation of mt1-mmp activity” (priority 2000, published 2004)
